From article PMC12172326 (Journal of Biomedical Science, 2025)

Tests used:
[1] = ex vivo stability in mouse plasma; assay type: in vitro ADME; settings: 100 μg/ml, room temperature, 0-180 min
Procedure: (§1) An ex vivo evaluation of drug stability was conducted in mouse and human plasma samples (WuXi AppTec, Shanghai, China). […] Samples were, thereafter, incubated at room temperature for 0, 15, 30, 60, 120, and 180 min before immediate drug extraction. […] Extraction was performed by adding ethyl acetate containing the internal standard (donepezil—known to undergo first-pass hepatic metabolism) to the spiked sample (100 μL), vortexed for 1 min, and centrifuged at 13,000 rpm, 4 °C for 10 min. The supernatant was used for LC–MS/MS analysis.
(§2) LC–MS/MS analysis was performed with a Vanquish Flex UHPLC (Thermo Scientific) and a Orbitrap Exploris 240 mass spectrometer (Thermo Scientific). Samples were separated on a C18 UHPLC column (100 mm × 2.1 mm, 3 μm; Thermo Scientific). The mobile phase A for LC separation was 0.1% formic acid and the mobile phase B was 0.1% formic acid in methanol. The chromatography gradient was designed for a linear increase from 5% B in 1 min, 5% B to 95% B in 8 min, 95% B in 3 min, and 5% B in 3 min. The flow rate was maintained at 0.3 mL/min. Mass spectra were acquired using the data-dependent Top 4 MS2 (ddMS2) method with a mass scan (100–1000 m/z) and 120,000 MS resolution.

[2] = ex vivo stability in human plasma; assay type: in vitro ADME; settings: 100 μg/ml, room temperature, 0-180 min
Procedure: as §1, §2

p-glycoprotein = test system: p-glycoprotein; parameters: method as in PMID 21825263; settings: cited from earlier work
[3] = cited from earlier work
Aiolos = Aiolos degradation, Western blot in MM.1S cells; assay type: cell-based, human; settings: 4 h, 0.1 to 10 μM, Aiolos/GAPDH, read-out: IC50 to lower Aiolos protein expression
Procedure: (§3) This cell line was obtained from the Korean Cell Line Bank (catalog no. 30105; Seoul, Korea), grown in DMEM (supplemented with 10% FBS, penicillin 100 U/mL and streptomycin 100 μg/mL, and maintained at 37 °C and 5% CO2). […] These were grown in RPMI media supplemented with 10% FBS, penicillin 100 U/mL, and streptomycin […], and maintained at 37 °C and 5% CO2. MM.1S cells were treated with drug (0.1 to 10 μM) for 4 h, and their cell lysates were prepared for Western blot analysis, as described previously.
(§4) For Western blot analysis, total proteins were extracted using RIPA buffer (Thermo Fisher Scientific, Waltham, MA) containing Halt Protease Inhibitor Cocktail (Thermo Fisher Scientific). Thereafter, proteins were separated by gel electrophoresis and then transferred to polyvinylidene difluoride (PVDF) membranes (Thermo Fisher Scientific), as detailed previously. The following primary antibodies were used: (i) anti-SALL4 antibody (catalog no. ab29112; 1:1000; Abcam, UK); (ii) anti-Aiolos antibody (catalog no. 15103; 1:1000; Cell Signaling Technology, Danvers, MA, USA); and (iii) anti-GAPDH antibody (catalog no. ab8245; 1:5000; Abcam, Cambridge, UK). […] Antigen–antibody complexes were detected using enhanced chemiluminescence (Thermo Fisher Scientific, iBright CL1500).

SALL4 = SALL4 degradation, Western blot in Tera-1 cells; assay type: cell-based, human; settings: 4 h, 0.1 to 10 μM, SALL4/GAPDH, read-out: IC50 to lower SALL4 protein expression
Procedure: as §3, §4

Nc1cccc2c1C(=S)N(C1CCC(=S)NC1=O)C2=O (stereo not drawn) [3,6′-DTP, 3,6′-dithiopomalidomide, reference compound]
ex vivo stability in mouse plasma [1]: rapidly disappears | ex vivo stability in human plasma [2]: rapidly disappears

Nc1cccc2c1CN(C1CCC(=O)NC1=O)C2=O (stereo not drawn) [Lenalidomide]
substrate for the efflux transporter p-glycoprotein (p-glycoprotein): substrate | CSF/plasma ratio [3]: 0.11

Nc1cccc2c1C(=O)N(C1CCC(=O)NC1=O)C2=O (stereo not drawn) [Pom, Pomalidomide]
IC50 (Aiolos): 0.06 µM | IC50 (SALL4): 0.04 µM
